Test system: A2780 cells
Assay: Expression of the isolated cDNA fragment (differential display, RT-PCR) in A2780 cells treated with cytotoxic agents
Type: cell-based, human
Conditions: for expression of the cDNA fragment: A2780 cells after treatment with the compound
Description: Human ovary carcinoma A2780 cells were treated for 1 hour with an antitumor derivative of distamycin-A at its 50% growth-inhibiting concentration; at the end of the treatment and after 6 and 24 hours the total RNA was isolated by column extraction (SVTotal RNA, Promega Italia) and reverse-transcribed using poly-T primers as indicated in the differential-display kit (GenHunter). The fragments thus obtained were separated on denaturing polyacrylamide gel and detected by autoradiography. The bands whose intensity differed from controls were isolated and purified. One of them (fragment 1), after purification and ^32P-labeling (rediprime kit, Amersham), was used as probe in Northern Blot experiments. The RNA from the same cells was separated on agarose gel, transferred onto nylon membrane and hybridized with the probe.
Cells A2780 were treated with taxol and cisplatin (DDP) and the RNA was extracted before and 24 hours after the treatment. […] A fragment of beta-actin gene was used as internal control.

| SMILES | expression of the cDNA fragment | specific mRNA band by RT-PCR versus control cells (A2780 cells, RNA 24 hours after treatment, beta-actin internal control) |
| --- | --- | --- |
| N.N.[Cl][Pt][Cl] [cisplatin] | increased production of the same fragment | more intense than that of control cells |
| COc1cccc2c1C(=O)c1c(O)c3c(c(O)c1C2=O)C[C@@](O)(C(=O)CO)C[C@@H]3O[C@H]1C[C@H](N)[C@H](O)[C@H](C)O1 [doxorubicin] | increased production of the same fragment |  |
| O=c1[nH]cc(F)c(=O)[nH]1 [fluorouracil] | increased production of the same fragment |  |
| CC(=O)O[C@H]1C(=O)[C@@]2(C)[C@H]([C@H](OC(=O)c3ccccc3)[C@]3(O)C[C@H](OC(=O)[C@H](O)[C@@H](NC(=O)c4ccccc4)c4ccccc4)C(C)=C1C3(C)C)[C@]1(OC(C)=O)CO[C@@H]1C[C@@H]2O [taxol] | increased production of the same fragment |  |

— patent publication US7189840B2, “Oncosuppressive gene” (Novuspharma S.p.A., priority 2001, dated 2007)
